Entries after “also recorded” stand apart in the source; their conditions may differ.
How the values were obtained:
Solubility (Table 1) = assay type: physicochemical; conditions: for Solubility Insoluble: solvents in which the compound is insoluble; for Solubility Soluble: solvents in which the compound is soluble
Procedure: Each of the compounds prepared by Examples 1 to 7 were subjected to UV absorbance analysis, IR(infrared) absorbance analysis and high resolution mass spectrometry analysis so as to determine the molecular weight and formula of the purified compound. Specifically, UV absorbance analysis was carried out by UV-265 spectrophotometer (Shimadzu), IR absorbance analysis was carried out by FTS-80 spectrophotometer (Bio-Rad Digilab Division), and the molecular weight and formula were determined through High resolution MS analysis by using VG70-SEQ mass spectrometry. Also, a nuclear magnetic resonance device (Varian 300, 500 NMR) was used to obtain ^1H, ^13C-NMR spectrum, and the spectrum was synthetically analyzed to determine the structure.

diabetic db/db mice = assay: Blood glucose level in db/db mice; assay type: in vivo; conditions: for reduced extent of blood glucose level compared to control / blood glucose level: 10 mg/kg oral
Procedure: In order to measure the blood glucose level in db/db mice through treatment of the compounds obtained from Examples, the effects of the compounds were measured by using a method described in the reference (Halseth A E et al, Biochem Biophys Res Commun. 294, […], 2002).
Meanwhile, to a control group, the same volume of saline solution orally administered for 4 weeks. Then, the change in blood glucose level of the mice was recorded.

Compound	Solubility Insoluble (Solubility (Table 1))	Solubility Soluble (Solubility (Table 1))	further results
CCCc1ccc(Oc2cc(CCC)cc(O)c2O)cc1 [Example 2, 3-(4-propylphenoxy)-5-propylbenzene-1,2-diol]	Water	Alcohol, and DMSO	
CCCc1ccc(Oc2cc(CCC)cc(O)c2OC)cc1 [Example 3, 3-(4-propylphenoxy)-2-methoxy-5-propylphenol]	Hexane,; also recorded: Water	Alcohol, and DMSO	
CCCc1ccc(Oc2cc(CCC)cc(OC(C)=O)c2OC(C)=O)cc1 [Example 4, 1-(4-propylphenoxy)-2,3-diacetyloxy-5-propylbenzene]	Water	Alcohol, and DMSO	
obovatol [Example 1]			change in blood glucose level compared to the control group (diabetic db/db mice; 5 mg/kg oral, 4 weeks): did not show a significant change; reduced extent of blood glucose level compared to control (diabetic db/db mice; after 1 week): 39.6%; blood glucose level (diabetic db/db mice; after 1 week (control 390.25±44.1)): 235.75±20.9; reduced extent of blood glucose level compared to control (diabetic db/db mice; after 2 weeks): 29.2%; blood glucose level (diabetic db/db mice; after 2 weeks (control 419.75±28.8)): 297.25±29; reduced extent of blood glucose level compared to control (diabetic db/db mice; after 3 weeks): 52.7%; blood glucose level (diabetic db/db mice; after 3 weeks (control 495±86.2)): 234±61.5; reduced extent of blood glucose level compared to control (diabetic db/db mice; after 4 weeks): 55.2%; blood glucose level (diabetic db/db mice; after 4 weeks (control 522±78)): 288±27.6

Continued, in another order:

Solubility Insoluble (Solubility (Table 1))	Solubility Soluble (Solubility (Table 1))	Compound	further results
Water	Alcohol, and DMSO	C/C=C/c1ccc(Oc2cc(/C=C/C)cc(OC(C)=O)c2OC(C)=O)cc1 [Example 7, 1-(4-((E)-prop-1-enyl)phenoxy)-2,3-diacetyloxy-5-((E)-prop-1-enyl)benzene]	
Water	Alcohol, and DMSO	C/C=C/c1ccc(Oc2cc(/C=C/C)cc(O)c2O)cc1 [Example 5, 3-(4-((E)-prop-1-enyl)phenoxy)-5-((E)-prop-1-enyl)benzene-1,2-diol]	

— patent publication US20100125103A1 (TG BIOTECH CO. LTD., priority 2008, published 2010)
